Laboratory results: patent publication US20240381872A1, “SUBSTITUTED 2,3-DIHYDRO[1,3]THIAZOLO[4,5-B]PYRIDINES, SALTS THEREOF AND THEIR USE AS HERBICIDALLY ACTIVE SUBSTANCES” (BAYER AKTIENGESELLSCHAFT, priority 2021, published 2024)

What was measured:
Type in all cases: in vivo
[1] = test system: Polygonum convolvulus (POLCO); test: Herbicidal pre-emergence action, section C (Table C7); conditions: Fallopia convolvulus, pre-emergence, 504 h, visual grading after ca. 3 weeks, read-out: pre-emergence activity against POLCO in %; for pest or weed control at 320 g/ha: application rate 320 g/ha
Excerpt: (§1) Seeds of mono- and dicotyledonous weed plants and crop plants were sown, in plastic or organic planting pots, in sandy loam and covered with soil. The compounds according to the invention, formulated in the form of wettable powders (WP) or as emulsifiable concentrates (EC), were applied to the surface of the covering soil as aqueous suspension or emulsion, with the addition of 0.5% of an additive, at an application rate of 600 l of water/ha (converted). Following treatment, the pots were placed in a greenhouse and kept under optimum growth conditions for the test plants. The visual grading of the damage to the test plants was carried out after ca. 3 weeks in comparison to untreated controls (herbicidal effect in percent (%): 100% effect=plants have died off, 0% effect=as control plants).

[2] = test system: Glycine max (GLXMA); test: Pre-emergence effects on crop plants, section D (Table D4); conditions: application rate 320 g/ha; visual grading after ca. 3 weeks
How it was run: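 After sowing in sandy loam and covering with soil, pots receive compound applied to the soil surface at rates up to 320 g/ha in 600 l water/ha containing 0.5% additive. Plants then grow under optimum greenhouse conditions. Percent herbicidal effect is rated visually at roughly 3 weeks against untreated pots.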

[3] = test system: Amaranthus retroflexus (AMARE); test: Herbicidal post-emergence action, section E (Table E3); conditions: Amaranthus retroflexus, post-emergence, 504 h; application rate 320 g/ha; assessed visually after ca. 3 weeks; read-out: post-emergence activity against AMARE in %
Excerpt: Seeds of mono- and dicotyledonous weed plants and crop plants were sown, in plastic or organic planting pots, in sandy loam, covered with soil and grown in a greenhouse under controlled growth conditions. 2 to 3 weeks after sowing, the test plants were sprayed in the single-leaf stage. The compounds according to the invention, formulated in form of wettable powders (WP) or as emulsifiable concentrates (EC), were sprayed onto the green plant parts as aqueous suspension or emulsion, with the addition of 0.5% of an additive, at an application rate of 600 l of water/ha (converted). The test plants were placed in the greenhouse for ca. 3 weeks under optimum growth conditions, and then the effect of the preparations was assessed visually in comparison with untreated controls (herbicidal effect in percent (%): 100% effect=plants have died off, 0% effect=as control plants).

[4] = test system: Abutilon theophrasti (ABUTH); test: Herbicidal pre-emergence action, section A (Table A1); conditions: application rate 1280 g/ha, visual grading after ca. 3 weeks vs untreated controls
Excerpt: as §1, with “plants” for “plants and crop plants”, “sown” for “sown,”, “pots (double sowings with one species of mono- and one species of dicotyledonous weed plants per pot),” for “or organic planting pots,”, “loam,” for “loam”, “water per hectare” for “water/ha”

[5] = test system: Echinochloa crus-galli (ECHCG); test: Herbicidal pre-emergence action, section A (Table A3); conditions: visual grading after ca. 3 weeks vs untreated controls; for pest or weed control at 320 g/ha: Echinochloa crus-galli, pre-emergence, 504 h, read-out: pre-emergence activity against ECHCG in %
How it was run: (§2)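 Seeds sown in sandy loam and covered with soil; compounds formulated as WP or EC were applied to the soil surface as aqueous suspension or emulsion with 0.5% additive at 600 l water/ha. Pots kept in greenhouse under optimum conditions; damage scored visually after ca. 3 weeks versus untreated controls (0–100%).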

[6] = test system: Digitaria sanguinalis (DIGSA); test: Herbicidal pre-emergence action, section A (Table A12); conditions: application rate 1280 g/ha; for pest or weed control at 1280 g/ha: Digitaria sanguinalis, 504 h, read-out: pre-emergence activity against DIGSA in %
How it was run: as §2

[7] = test system: Kochia scoparia (KCHSC); test: Herbicidal post-emergence action, section B (Table B4); conditions: visual rating about 3 weeks after treatment vs untreated controls; for pest or weed control at 320 g/ha: Bassia scoparia, post-emergence, 504 h, read-out: post-emergence activity against KCHSC in %
How it was run: (§3)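 In this greenhouse assay, compounds in WP or EC form were applied post-emergence with 0.5% additive at a water rate of 600 liters per hectare. Treatment took place at the one-leaf stage, and injury was rated visually about 3 weeks later against untreated plants.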

[8] = test system: Digitaria sanguinalis (DIGSA); test: Herbicidal post-emergence action, section B (Table B12); conditions: application rate 1280 g/ha; visual rating about 3 weeks after treatment vs untreated controls
How it was run: as §3

[9] = test system: Digitaria sanguinalis (DIGSA); test: Herbicidal pre-emergence action, section C (Table C12); conditions: visual grading after ca. 3 weeks; for pest or weed control at 80 g/ha: application rate 80 g/ha
How it was run: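 Weed and crop seeds sown in sandy loam, covered with soil, then WP or EC formulations sprayed onto the soil surface as aqueous suspension/emulsion with 0.5% additive at 600 l water/ha. Kept in greenhouse under optimum conditions; damage graded visually after ca. 3 weeks versus untreated controls (0% = as control, 100% = plants dead).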

[10] = test system: Echinochloa crus-galli (ECHCG); test: Herbicidal post-emergence action, section B (Table B3); conditions: rated visually after about 3 weeks
How it was run: as §3

[11] = test system: Abutilon theophrasti (ABUTH); test: Herbicidal post-emergence action, section B (Table B1); conditions: Abutilon theophrasti, 504 h, application rate 1280 g/ha, rated visually after about 3 weeks, read-out: post-emergence activity against ABUTH in %
How it was run: as §3

[12] = Digitaria sanguinalis, pre-emergence, 504 h, read-out: pre-emergence activity against DIGSA in %

Structure (SMILES): Fc1ccccc1-c1nc2c(cc1Br)SCN2 [Example I-001, 6-bromo-5-(2-fluorophenyl)-2,3-dihydro[1,3]thiazolo[4,5-b]pyridine]
- pest or weed control at 320 g/ha [1]: 80%
- pre-emergence activity against GLXMA in % (crop plant damage) [2]: 0%
- pest or weed control at 320 g/ha [3]: 80%

Structure (SMILES): COC(=O)CCC(=O)N1CSc2cc(Cl)c(-c3ccccc3F)nc21 [Example I-003]
- pre-emergence activity against ABUTH in % [4]: 90%
- pre-emergence activity against ECHCG in % ([5]; application rate 1280 g/ha): 100%
- pre-emergence activity against DIGSA in % [6]: 100%
- post-emergence activity against KCHSC in % ([7]; application rate 320 g/ha): 90%
- post-emergence activity against DIGSA in % [8]: 100%
- pre-emergence activity against DIGSA in % ([9]; application rate 320 g/ha): 90%

Structure (SMILES): BN1CSc2cc(Br)c(-c3ccccc3C)nc21 [Example I-011]
- pre-emergence activity against ECHCG in % ([5]; application rate 320 g/ha): 100%
- post-emergence activity against ECHCG in % ([10]; application rate 1280 g/ha): 90%
- post-emergence activity against KCHSC in % ([7]; application rate 1280 g/ha): 90%
- pre-emergence activity against DIGSA in % ([9]; application rate 320 g/ha): 100%
- pre-emergence activity against GLXMA in % (crop plant damage) [2]: 0%

Structure (SMILES): Clc1ccccc1-c1nc2c(cc1Br)SCN2 [Example I-041, 6-bromo-5-(2-chlorophenyl)-2,3-dihydro[1,3]thiazolo[4,5-b]pyridine]
- pest or weed control at 1280 g/ha ([4]; Abutilon theophrasti, pre-emergence, 504 h, read-out: pre-emergence activity against ABUTH in %): 90%
- pest or weed control at 320 g/ha ([5]; application rate 320 g/ha): 100%
- pest or weed control at 1280 g/ha [6]: 100%
- pest or weed control at 1280 g/ha [11]: 90%
- pest or weed control at 320 g/ha ([10]; Echinochloa crus-galli, 504 h, application rate 320 g/ha, read-out: post-emergence activity against ECHCG in %): 100%
- pest or weed control at 320 g/ha ([7]; application rate 320 g/ha): 90%
- pest or weed control at 80 g/ha ([1]; application rate 80 g/ha): 80%
- pest or weed control at 320 g/ha ([9]; Digitaria sanguinalis, pre-emergence, 504 h, application rate 320 g/ha, read-out: pre-emergence activity against DIGSA in %): 100%

Structure (SMILES): CCc1ccccc1-c1nc2c(cc1C)[S+]([O-])CN2 (stereo not drawn) [Example I-047]
- pest or weed control at 320 g/ha ([5]; application rate 320 g/ha): 100%
- pest or weed control at 1280 g/ha [6]: 100%
- pest or weed control at 1280 g/ha ([10]; Echinochloa crus-galli, 504 h, application rate 1280 g/ha, read-out: post-emergence activity against ECHCG in %): 90%
- pest or weed control at 320 g/ha ([7]; application rate 320 g/ha): 90%
- pest or weed control at 320 g/ha [1]: 80%
- pest or weed control at 80 g/ha [9, 12]: 90%
- pre-emergence activity against GLXMA in % (crop plant damage) [2]: 20%

Structure (SMILES): Cc1cc2c(nc1-c1ccccc1Cl)NCS2 [Example I-049, 5-(2-chlorophenyl)-6-methyl-2,3-dihydro[1,3]thiazolo[4,5-b]pyridine]
- pest or weed control at 320 g/ha [1]: 80%
- pest or weed control at 80 g/ha [9, 12]: 90%
- pre-emergence activity against GLXMA in % (crop plant damage) [2]: 0%
- pest or weed control at 320 g/ha [3]: 90%
